Source: patent publication US20260272895A1, “METHODS AND KITS FOR DELIVERY OF COMPOUNDS INTO CELLS” (Yale University, priority 2023, published 2026)

Biological target: T1, SLCO1A2 (Homo sapiens, UniProt P46721)
T1 sequence (P46721 1-670): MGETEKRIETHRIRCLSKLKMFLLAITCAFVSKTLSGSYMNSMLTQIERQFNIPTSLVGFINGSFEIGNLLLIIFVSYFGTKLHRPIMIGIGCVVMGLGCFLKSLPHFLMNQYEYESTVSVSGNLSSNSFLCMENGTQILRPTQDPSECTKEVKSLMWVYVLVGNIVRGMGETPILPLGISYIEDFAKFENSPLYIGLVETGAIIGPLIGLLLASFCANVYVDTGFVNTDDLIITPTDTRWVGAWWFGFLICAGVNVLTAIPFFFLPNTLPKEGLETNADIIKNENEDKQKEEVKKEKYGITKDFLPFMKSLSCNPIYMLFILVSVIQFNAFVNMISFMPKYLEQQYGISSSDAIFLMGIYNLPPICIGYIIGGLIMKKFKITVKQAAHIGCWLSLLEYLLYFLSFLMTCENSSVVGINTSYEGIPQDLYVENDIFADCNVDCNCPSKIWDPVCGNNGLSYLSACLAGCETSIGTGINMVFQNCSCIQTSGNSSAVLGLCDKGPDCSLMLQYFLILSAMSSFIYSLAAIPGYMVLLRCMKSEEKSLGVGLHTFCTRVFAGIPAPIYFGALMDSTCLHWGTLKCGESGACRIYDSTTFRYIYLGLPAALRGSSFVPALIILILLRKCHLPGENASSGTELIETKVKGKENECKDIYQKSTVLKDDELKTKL
Experiment: Compound uptake in HEK293 cells transfected with SLCO1A2
Format: cell-based
Design: FLAG
Protocol: HEK293 cells are cultured and seeded at ~60% confluency in 24-well plates and are transiently transfected with 250 ng of a candidate transporter and 1 μL transfection reagent (JetPRIME). After 2 days, cells are washed and novel fluorescent probes at different concentrations are added to the transport medium and incubated at 37° C., for at least 30 minutes. To terminate the transport, cells are washed with PBS and fixed with 4% paraformaldehyde. The colocalization of probe uptake and cells expressing the transporters is investigated by immunostaining the transporter which has a fused FLAG tag, using anti-FLAG 488. Before confocal imaging, nuclei are labeled with Hoechst 33342 and cells are mounted and imaged on a Leica SP8 confocal microscope.
For in vitro experiments, HEK293 cells were cultured and seeded in 24-well plates, reaching approximately 60% confluency. For transient transfection, 250 ng of a candidate transporter plasmid and 1 μL of transfection reagent (JetPRIME) were added to the cells. After a 2-day incubation period, the cells were washed, and novel fluorescent probes were introduced into the transport medium at various concentrations. The cells were then incubated at 37° C., for a minimum of 30 minutes to allow for uptake. To stop the transport process, the cells were washed with PBS and fixed using 4% paraformaldehyde. Immunostaining of the transporter, which was fused with a FLAG tag, was performed using an anti-FLAG 488 antibody. Before confocal imaging, the cell nuclei were labeled with Hoechst 33342. Finally, the cells were mounted and imaged using a Leica SP8 confocal microscope.

Structure (SMILES)	uptake in SLCO1A2 transfected HEK293 cells (concentration not given)	uptake in SLCO1A2 transfected HEK293 cells (10 μM)
O=S(=O)([O-])c1cc(S(=O)(=O)O)ccc1C1=c2cc3c4c(c2Oc2cc(Br)ccc21)CCC[N+]=4CCC3 [Compound 1, 2-(12-bromo-1,2,3,5,6,7-hexahydrochromeno[2,3-f]pyrido[3,2,1-ij]quinolin-4-ium-9-yl)-5-sulfobenzenesulfonate]	only those cells expressing the carrier SLCO1A2 (as evidenced by anti-FLAG labeling-green) take up compound 1	
COc1cc2c(c(OC)c1OC)-c1ccc(OC)c(=O)cc1C(NS(=O)(=O)c1ccc(-c3c4ccc(N(C)C)cc4[o+]c4cc(N(C)C)ccc34)c(S(=O)(=O)[O-])c1)CC2 (centres unmarked) [Compound 47, 2-(3,6-bis(dimethylamino)xanthylium-9-yl)-5-(N-(1,2,3,10-tetramethoxy-9-oxo-5,6,7,9-tetrahydrobenzo[a]heptalen-7-yl)sulfamoyl)benzenesulfonate]		robust and selective uptake
